Results taken from US20100048462A1, “TRUNCATED PTH PEPTIDES WITH A CYCLIC CONFORMATION” (Zealand Pharma A/S, priority 2006, published 2010).
Bridge positions count the residues as written; N and C are the ends. Square brackets hold non-standard residues; d marks the D form. Peptide text beside a SMILES is read from it. hArg = N=C(N)NCCCC[C@H](N)C(=O)O; Ac5c = NC1(C(=O)O)CCCC1; Dab = NCC[C@H](N)C(=O)O; Aib = CC(C)(N)C(=O)O

What was measured:
Saos-2 PTH1R [1] = molecular target: T1, Saos-2 PTH1R (Homo sapiens, UniProt Q03431); test: cAMP-efficacy assay in Saos-2 cells; format: cell-based; details: for EC50 / potency compared to linear / non-stabilized counterparts, in words / pEC50 ± SEM: cAMP; for EC50 / pEC50 ± SEM: 100 μM IBMX, 37° C. 15 min, suffix of label = salt tested; for Emax ± SEM: relative effect to the control (SEQ ID NO: 32)
T1 construct: endogenous in cells; host or cells: Saos-2
T1 sequence (Q03431 27-593): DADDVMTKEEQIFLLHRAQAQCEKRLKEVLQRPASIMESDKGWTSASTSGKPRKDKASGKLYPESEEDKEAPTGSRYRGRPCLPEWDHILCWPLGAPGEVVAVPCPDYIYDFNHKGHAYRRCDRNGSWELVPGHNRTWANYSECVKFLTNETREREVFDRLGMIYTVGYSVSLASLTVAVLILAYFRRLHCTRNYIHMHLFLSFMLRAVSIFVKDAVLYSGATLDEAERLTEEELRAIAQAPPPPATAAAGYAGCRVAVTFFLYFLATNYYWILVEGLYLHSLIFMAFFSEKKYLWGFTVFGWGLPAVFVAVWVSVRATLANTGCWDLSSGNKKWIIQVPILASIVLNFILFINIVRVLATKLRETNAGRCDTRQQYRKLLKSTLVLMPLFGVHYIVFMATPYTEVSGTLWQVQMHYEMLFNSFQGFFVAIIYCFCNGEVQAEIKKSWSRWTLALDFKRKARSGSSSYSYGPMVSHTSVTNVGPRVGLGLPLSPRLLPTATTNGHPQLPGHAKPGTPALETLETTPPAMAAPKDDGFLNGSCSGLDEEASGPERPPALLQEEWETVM
Method in brief: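 cAMP accumulation was assayed by FlashPlate after 15 min peptide stimulation at 37 °C of Saos-2 cells in Tyrode's buffer containing 100 μM IBMX and 0.1% BSA, with the reaction stopped by ice-cold HCl. Variable-slope logistic fitting gave EC50/pEC50, Hill coefficient and Emax, with single or triplicate points.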

CYP2D6 [2] = molecular target: T2, CYP2D6 (Homo sapiens, UniProt P10635); test: CYP2D6 inhibition in pooled human liver microsomes; format: in vitro ADME; parameters: Pooled human liver microsomes (HLM, final concentration 0.05 mg protein/mL); tissue BD Biosciences 452161; host or cells: pooled human liver microsomes; details: 10 μM compound, dextrorphan formation rate
Method: Stock solutions of the test compounds (1 mM) were prepared in 50% isopropanol or 20% DMSO. Pooled human liver microsomes (HLM, final concentration 0.05 mg protein/mL) were mixed with phosphate buffer (0.1 M potassium phosphate, pH 7.4), CYP2D6 substrate (dextrometrorphan, 5 μM final concentration) and test compound (10 μM), quinidine (0.5 μM) or vehicle (0.2% DMSO or 0.5% isopropanol). The mixture was preincubated for 5 min at 37° C. prior to initiation of the reaction addition of a NADPH regenerating mixture (Final concentration: 1.25 mM NADP^+, 3.3 mM Glucose-6-phosphate, 3.3 mM MgCL2 and 0.4 U/mL glucose-6-phosphat dehydrogenase). After 5 minutes the reaction was stopped by addition of 0.25 volume stop reagent (94% acetonitrile, 6% acetic acid). Each experiment was performed in duplicate or triplicate.
The quantification of CYP2D6 product (dextrorphan) was performed by LC/MS/MS. After centrifugation for 5 min at 10.000 g, 40 μL of the supernatant was injected onto a C8 RP-HPLC column (XterraMS, C8, […], 50×2.1 mm). Dextrorphan was eluted by a linear gradient from 0 to 90% acetonitrile in 0.1% formic acid over 4 min using a flow rate of 0.15 ml/min. The concentration of dextrorphan in the reaction mixture was estimated from the peak area of the MS/MS transition (m/z 258.1>199) using an external calibration curve (Table 8).
The CYP2D6 activity in HLM was calculated as the metabolite formation rate: […]
Where, v is the formation rate, [metabolite] is the detected concentration of dextrorphan (pmol/mL) at the time (t, min) and [protein] is the protein concentration (mg/mL) in the reaction mixture. The influence of the test compounds on the CYP2D6 activity was calculated as % of the activity measured when incubated with the vehicle. The effect of CYP2D6 inhibitor (quinidine) was included as inhibition control within each batch analysis. A reduction in CYP2D6 activity to less than 70% of the vehicle control was considered significant.

CYP2D6 [3] = molecular target: T2, CYP2D6; test: cell-based or functional assay
Saos-2 PTH1R [4] = molecular target: Saos-2 PTH1R (UniProt Q03431); test: cell-based or functional assay

T2 sequence (P10635 whole entry): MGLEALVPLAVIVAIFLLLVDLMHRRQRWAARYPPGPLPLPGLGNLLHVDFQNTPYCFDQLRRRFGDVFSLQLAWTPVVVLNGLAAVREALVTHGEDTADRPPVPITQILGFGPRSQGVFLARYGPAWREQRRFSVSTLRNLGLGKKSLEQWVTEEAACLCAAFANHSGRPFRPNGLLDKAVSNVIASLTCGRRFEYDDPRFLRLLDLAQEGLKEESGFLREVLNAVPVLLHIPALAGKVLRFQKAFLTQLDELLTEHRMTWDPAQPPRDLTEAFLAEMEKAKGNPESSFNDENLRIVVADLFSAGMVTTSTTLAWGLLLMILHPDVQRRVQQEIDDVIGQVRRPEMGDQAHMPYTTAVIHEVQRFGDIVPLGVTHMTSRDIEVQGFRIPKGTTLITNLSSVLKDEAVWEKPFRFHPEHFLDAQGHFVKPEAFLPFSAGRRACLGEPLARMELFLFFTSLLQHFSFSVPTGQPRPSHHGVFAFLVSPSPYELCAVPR

| Compound | EC50 (Saos-2 PTH1R [1]) [nM] | Emax ± SEM (Saos-2 PTH1R [1]) | CYP2D6 activity (% of vehicle) (CYP2D6 [2]) | CYP2D6 activity (% of vehicle), dextrorphan formation rate in human liver microsomes, 10 µM peptide (CYP2D6 [3]) | further results |
| --- | --- | --- | --- | --- | --- |
| CC[C@H](C)[C@H](NC(=O)[C@H](CCC(=O)O)NC(=O)C(C)(C)NC(=O)[C@@H](NC(=O)C1(N)CCCC1)C(C)C)C(=O)N[C@@H](CCC(N)=O)C(=O)N[C@@H](CC(C)C)C(=O)N[C@H](C(=O)N[C@@H](Cc1c[nH]cn1)C(=O)N[C@@H](CCC(N)=O)C(=O)N[C@@H](CCCCNC(=N)N)C(=O)N[C@@H](C)C(=O)N[C@H]1CCCCNC(=O)C[C@@H](C(N)=O)NC(=O)[C@H](CC(N)=O)NC(=O)[C@H](CC(C)C)NC(=O)[C@H](Cc2c[nH]c3ccccc23)NC1=O)C(C)C [SEQ ID NO: 21, H-Ac5c-Val-Aib-Glu-Ile-Gln-Leu-Val-His-Gln-Har-Ala-Lys( )-Trp-Leu-Asn-Asp( )-NH2] (H-[Ac5c]V[Aib]EIQLVHQ[hArg]AKWLND-NH2; lactam 13-17) | 151 | 1.40 ± 0.27 | 92 % of vehicle |  |  |
| CC[C@H](C)[C@H](NC(=O)[C@H](CCC(=O)O)NC(=O)C(C)(C)NC(=O)[C@@H](NC(=O)C1(N)CCCC1)C(C)C)C(=O)N[C@@H](CCC(N)=O)C(=O)N[C@@H](CC(C)C)C(=O)N[C@@H](CCSC)C(=O)N[C@@H](Cc1c[nH]cn1)C(=O)N[C@@H](CCC(=O)O)C(=O)N[C@@H](CCCCNC(=N)N)C(=O)N[C@@H](C)C(=O)N[C@H]1CCCCNC(=O)C[C@@H](C(N)=O)NC(=O)[C@H](CC(N)=O)NC(=O)[C@H](CC(C)C)NC(=O)[C@H](Cc2c[nH]c3ccccc23)NC1=O [SEQ ID NO: 24, H-Ac5c-Val-Aib-Glu-Ile-Gln-Leu-Met-His-Glu-Har-Ala-Lys( )-Trp-Leu-Asn-Asp( )-NH2] (H-[Ac5c]V[Aib]EIQLMHE[hArg]AKWLND-NH2; lactam 13-17) | 126 | 1.4 | 83 % of vehicle |  |  |
| CC[C@H](C)[C@H](NC(=O)[C@H](CCC(=O)O)NC(=O)C(C)(C)NC(=O)[C@@H](NC(=O)C1(N)CCCC1)C(C)C)C(=O)N[C@@H](CCC(N)=O)C(=O)N[C@@H](CC(C)C)C(=O)N[C@@H](CCSC)C(=O)N[C@@H](Cc1c[nH]cn1)C(=O)N[C@@H](CC(N)=O)C(=O)N[C@@H](CC(C)C)C(=O)NCC(=O)N[C@H]1CCCCNC(=O)C[C@@H](C(N)=O)NC(=O)[C@H](CC(N)=O)NC(=O)[C@H](CC(C)C)NC(=O)[C@H](Cc2c[nH]cn2)NC1=O [SEQ ID NO: 34] (H-[Ac5c]V[Aib]EIQLMHNLGKHLND-NH2; lactam 13-17) | 214 | 1.12 ± 0.09 | 107 % of vehicle |  | potency compared to linear / non-stabilized counterparts, in words (Saos-2 PTH1R [1]): significantly higher potency; potency compared to linear / non-stabilized counterparts, in words (Saos-2 PTH1R [1]; listed as 34): increased potencies; potency compared to linear / non-stabilized counterparts, in words (Saos-2 PTH1R [1]; listed as SEQ ID NO:34): strikingly higher potency |
| CC[C@H](C)[C@H](NC(=O)[C@H](CCC(=O)O)NC(=O)[C@H](CO)NC(=O)[C@@H](NC(=O)[C@@H](N)CO)C(C)C)C(=O)N[C@@H](CCC(N)=O)C(=O)N[C@@H](CC(C)C)C(=O)N[C@@H](CCSC)C(=O)N[C@@H](Cc1c[nH]cn1)C(=O)N[C@@H](CC(N)=O)C(=O)N[C@@H](CC(C)C)C(=O)NCC(=O)N[C@H]1CCCCNC(=O)C[C@@H](C(N)=O)NC(=O)[C@H](CC(N)=O)NC(=O)[C@H](CC(C)C)NC(=O)[C@H](Cc2c[nH]cn2)NC1=O [SEQ ID NO: 36] |  |  | 79 % of vehicle |  | pEC50 ± SEM (Saos-2 PTH1R [1]): inactive |
| CC[C@H](C)[C@H](NC(=O)[C@H](CCC(=O)O)NC(=O)[C@H](CO)NC(=O)[C@@H](NC(=O)[C@@H](N)CO)C(C)C)C(=O)N[C@@H](CCC(N)=O)C(=O)N[C@@H](CC(C)C)C(=O)N[C@@H](CCSC)C(=O)N[C@@H](Cc1c[nH]cn1)C(=O)N[C@@H](CC(N)=O)C(=O)N[C@@H](CC(C)C)C(=O)NCC(=O)N[C@@H](CCCCN)C(=O)N[C@@H](Cc1c[nH]cn1)C(=O)N[C@@H](CC(C)C)C(=O)N[C@@H](CC(N)=O)C(=O)N[C@@H](CO)C(N)=O [SEQ ID NO: 37, reference compound] |  |  | 41 % of vehicle |  | pEC50 ± SEM (Saos-2 PTH1R [1]): inactive |
| CC[C@H](C)[C@H](NC(=O)[C@H](CCC(=O)O)NC(=O)C(C)(C)NC(=O)[C@@H](NC(=O)C1(N)CCCC1)C(C)C)C(=O)N[C@@H](CCC(N)=O)C(=O)N[C@@H](CC(C)C)C(=O)N[C@@H](CC(C)C)C(=O)N[C@@H](Cc1c[nH]cn1)C(=O)N[C@@H](CCC(N)=O)C(=O)N[C@@H](CCCCNC(=N)N)C(=O)N[C@@H](C)C(=O)N[C@H]1CCNC(=O)C[C@@H](C(N)=O)NC(=O)[C@H](CC(N)=O)NC(=O)[C@H](CC(C)C)NC(=O)[C@H](Cc2c[nH]c3ccccc23)NC1=O [SEQ ID NO: 41, H-Ac5c-Val-Aib-Glu-Ile-Gln-Leu-Leu-His-Gln-Har-Ala-Dab( )-Trp-Leu-Asn-Asp( )-NH2] (H-[Ac5c]V[Aib]EIQLLHQ[hArg]A[Dab]WLND-NH2; lactam 13-17 (inferred)) | 64.6 | 0.99 ± 0.02 | 82 % of vehicle |  |  |
| H-Ac5c-Val-Aib-Glu-Ile-Gln-Leu-Met-His-Gln-Har-Ala-Glu( )-Trp-Leu-Asn-Lys( )-NH2 (peptide) |  |  |  | 99 % of vehicle | Emax, cAMP efficacy assay in Saos-2 cells (8T, trifluoroacetate salt) (relative to control (SEQ ID NO: 32)) (Saos-2 PTH1R [4]): 1.07; pEC50, cAMP efficacy assay in Saos-2 cells (8T, trifluoroacetate salt) (Saos-2 PTH1R [4]): 7.94 -log(M) |
| H-Ac5c-Val-Aib-Glu-Ile-Gln-Leu-Met-His-Gln-Har-Ala-Lys( )-Trp-Leu-Asn-Asp( )-OH (peptide) |  |  |  | 89 % of vehicle | Emax, cAMP efficacy assay in Saos-2 cells (4T, trifluoroacetate salt) (relative to control (SEQ ID NO: 32)) (Saos-2 PTH1R [4]): 1.11; pEC50, cAMP efficacy assay in Saos-2 cells (4T, trifluoroacetate salt) (Saos-2 PTH1R [4]): 7.42 -log(M) |
| H-Ac5c-Val-Aib-Glu-Ile-Gln-Leu-Met-His-Glu-Har-Ala-Lys( )-Trp-Leu-Asn-Asp( )-NH2 (peptide) |  |  |  | 83 % of vehicle | Emax, cAMP efficacy assay in Saos-2 cells (24T, trifluoroacetate salt) (relative to control (SEQ ID NO: 32)) (Saos-2 PTH1R [4]): 1.4; pEC50, cAMP efficacy assay in Saos-2 cells (24T, trifluoroacetate salt) (Saos-2 PTH1R [4]): 6.9 -log(M) |
| H-Ac5c-Val-Aib-Glu-Ile-Gln-Leu-Nle-His-Gln-Har-Ala-Lys( )-Trp-Leu-Asn-Asp( )-NH2 (peptide) |  |  |  | 99 % of vehicle | Emax, cAMP efficacy assay in Saos-2 cells (20T, trifluoroacetate salt) (relative to control (SEQ ID NO: 32)) (Saos-2 PTH1R [4]): 0.97; pEC50, cAMP efficacy assay in Saos-2 cells (20T, trifluoroacetate salt) (Saos-2 PTH1R [4]): 8.1 -log(M) |
| H-Ac5c-Val-Aib-Glu-Ile-Glu-Leu-Met-His-Gln-Har-Ala-Lys( )-Trp-Leu-Asn-Asp( )-NH2 (peptide) |  |  |  | 89 % of vehicle | Emax, cAMP efficacy assay in Saos-2 cells (18T, trifluoroacetate salt) (relative to control (SEQ ID NO: 32)) (Saos-2 PTH1R [4]): 1.24; pEC50, cAMP efficacy assay in Saos-2 cells (18T, trifluoroacetate salt) (Saos-2 PTH1R [4]): 7.29 -log(M) |
| H-Ser-Val-Ser-Glu-Ile-Gln-Leu-Met-His-Asn-Leu-Gly-Lys( )-His-Leu-Asn-Asp( )-NH2 (peptide) |  |  |  | 79 % of vehicle |  |
| H-Ser-Val-Ser-Glu-Ile-Gln-Leu-Met-His-Asn-Leu-Gly-Lys-His-Leu-Asn-Ser-NH2 (peptide) |  |  |  | 41 % of vehicle |  |
